Laboratory results reported in patent US8158621B2, “Methods of treating or preventing autoimmune diseases with 2,4-pyrimidinediamine compounds” (Rigel Pharmaceuticals, Inc., priority 2002, dated 2012).

How the values were obtained:
[1] = tested on: cultured human mast cells (CHMC); assay: CHMC low cell density IgE activation: tryptase assay; type: cell-based
Summary of the method: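 Cells pelleted, taken up in warm MT, plated at 1000-1500/well, held 1 hr 37° C. Anti-IgE added, 30 min 37° C. Plates spun; supernatant mixed with tryptase substrate, 30 min RT.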

[2] = tested on: cultured human mast cells (CHMC); assay: CHMC high cell density IgE activation: TNFalpha; type: cell-based; settings: read-out: CHMC high density TNF-alpha
Method: (§1) After sensitizing, cells are counted, pelleted (1000 rpm, 5-10 minutes), and resuspended at 1-2 ×10^6 cells/ml in MT buffer. Add 100 ul of cell suspension to each well and 100 ul of compound dilutions. The final vehicle concentration is 0.5% DMSO. Incubate at 37° C. (5% CO2) for 1 hour. After 1 hour of compound treatment, stimulate cells with 6× anti-IgE. Mix wells with the cells and allow plates to incubate at 37° C. (5% CO2) for one hour. After 1 hour incubation, pellet cells (10 minutes, 1000 RPM) and collect 200 ul per well of the supernatant, being careful not to disturb pellet. Place the supernatant plate on ice. During the 7-hour step (see next) perform tryptase assay on supernatant that had been diluted 1:500. Resuspend cell pellet in 240 ul of CM media containing 0.5% DMSO and corresponding concentration of compound. Incubate CHMC cells for 7 hours at 37° C. (5% CO2). After incubation, pellet cells (1000 RPM, 10 minutes) and collect 225 ul per well and place in −80° C. until ready to perform ELISAS. ELISAS are performed on appropriately diluted samples (determined empirically for each donor cell population so that the sample measurement falls within the standard curve) following the supplier's instructions.

[3] = tested on: cultured human mast cells (CHMC); assay: CHMC low cell density IgE activation: LTC4 assay; type: cell-based; settings: anti-IgE activation, LTC4 release
Method: Pellet CHMC cells (980 rpm, 10 min) and resuspend in pre-warmed MT. Add 65 ul of cells to each 96-well plate. Depending on the degranulation activity for each particular CHMC donor, load 1000-1500 cells/well. Mix four times followed by a 1 hr incubation at 37° C. […] Stimulate cells by adding 25 ul of 6× anti-IgE solution to the appropriate plates. Add 25 ul MT to un-stimulated control wells. Mix twice following addition of the anti-IgE. Incubate at 37° C. for 30 minutes. […] Spin plates at 1000 rpm for 10 min to pellet cells. Transfer 25 ul of supernatant to a 96-well black bottom plate and add 100 ul of freshly diluted tryptase substrate solution to each well. Incubate plates at room temperature for 30 min.
Leukotriene C4 (LTC4) is also quantified using an ELISA kit on appropriately diluted supernatant samples (determined empirically for each donor cell population so that the sample measurement falls within the standard curve) following the supplier's instructions.

[4] = tested on: cultured human mast cells (CHMC); assay: CHMC high cell density IgE activation: LTC4; type: cell-based
Method: as §1

[5] = tested on: Human Jurkat T-cells (clone N); assay: Jurkat T-cell activation (anti-TCR, CD69 upregulation); type: cell-based
Summary of the method: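 Jurkat cells in RPMI + 5% FBS preincubated with compound 1 h at 37 °C, then stimulated with anti-TCR C305 at 500 ng/ml for 20 h. CD69 surface expression stained with anti-CD69-APC and read by flow cytometry; IC50 versus solvent-only control.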

[6] = tested on: cultured human mast cells (CHMC); assay: CHMC high cell density IgE activation: hexos; type: cell-based
Method: as §1
(§2) Add 50 uL of BMMC cell supernatant (see above) to the hexoseaminidase substrate, place at 37° C. for 30 minutes and read the plate at 5, 10, 15, and 30 minutes on a spectrophotometer.

[7] = tested on: cultured human mast cells (CHMC); assay: CHMC high cell density IgE activation: histamine; type: cell-based
Method: as §1

[8] = tested on: cultured human mast cells (CHMC); assay: CHMC low cell density ionomycin activation: tryptase assay; type: cell-based
[9] = tested on: cultured human mast cells (CHMC); assay: CHMC high cell density IgE activation: tryptase; type: cell-based
Method: as §1

Syk kinase = target: T1, Syk kinase (Homo sapiens, UniProt P43405); assay: Syk kinase biochemical fluorescence polarization assay; settings: isolated Syk kinase, fluorescence polarization, 4 uM ATP
T1 construct: purchased Upstate, Lake Placid NY

[10] = tested on: cultured human mast cells (CHMC); assay: CHMC high cell density IgE activation: IL-13; type: cell-based
Method: as §1

[11] = tested on: basophil cells (human peripheral blood); assay: Basophil ionomycin activation: histamine release assay; type: cell-based; settings: basophils, ionomycin activation, histamine release; read-out: Basophils Ionomycin Histamine IC50
Method: The basophil activation assay was carried out using whole human peripheral blood from donors allergic to dust mites with the majority of the red blood cells removed by dextran sedimentation. Human peripheral blood was mixed 1:1 with 3% dextran T500 and RBCs were allowed to settle for 20-25min. The upper fraction was diluted with 3 volumes of D-PBS and cells were spun down for 10 min at 1500 rpm, RT. Supernatant was aspirated and cells were washed in an equal volume MT-buffer. Finally, cells were resuspended in MT-buffer containing 0.5% DMSO in the original blood volume. 80 uL cells were mixed with 20 uL compound in the presence of 0.5% DMSO, in triplicate, in a V-bottom 96-well tissue culture plate. A dose range of 8 compound concentrations was tested resulting in a 10-point dose response curve including maximum (stimulated) and minimum (unstimulated) response. […] The cells were stimulated for 30 minutes at 37° C., 5% CO2. The plate was spun for 10 min at 1500 rpm at room temperature and 80 uL the supernatant was harvested for histamine content analysis using the histamine ELISA kit supplied by Immunotech. The ELISA was performed according to supplier's instructions.
Assays for ionomycin-induced basophil cell degranulation were carried out as described for the Basophil IgE or Dustmite Activation Assay (Section 7.5.5, supra), with the exception that following incubation with compound, cells were stimulated with 20 μl of 2 μM ionomycin.

[12] = tested on: bone marrow derived mast cells (BMMC); assay: BMMC high cell density IgE activation: IL-6; type: cell-based, mouse; settings: high cell density; read-out: BMMC anti-IgE IL-6
Method: (§3) After sensitizing, cells are counted, pelleted (1000 rpm, 5-10 minutes), and resuspended at 1-3×10^6 cells/ml in MT buffer. Add 100 ul of cell suspension to each well and 100 ul of compound dilutions. The final vehicle concentration is 0.5% DMSO. Incubate at 37° C. (5% CO2) for 1 hour. After 1 hour of compound treatment, stimulate cells with 6× stimulus (60 ng/ml DNP-BSA). Mix wells with the cells and allow plates to incubate at 37° C. (5% CO2) for one hour. After 1 hour incubation, pellet cells (10 minutes, 1000 RPM) and collect 200 ul per well of the supernatant, being careful not to disturb pellet, and transfer to a clean tube or 96-well plate. Place the supernatant plate on ice. During the 4-5 hour step (see next) perform the hexosiminidase assay. Resuspend cell pellet in 240 ul WEI-conditioned media containing 0.5% DMSO and corresponding concentration of compound. Incubate BMMC cells for 4-5 hours at 37° C. (5% CO2). After incubation, pellet cells (1000 RPM, 10 minutes) and collect 225 ul per well and place in −80° C. until ready to perform ELISAS. ELISAS are performed on appropriately diluted samples (determined empirically for each donor cell population so that the sample measurement falls within the standard curve) following the supplier's instructions.

[13] = tested on: bone marrow derived mast cells (BMMC); assay: BMMC high cell density IgE activation: TNFalpha; type: cell-based, mouse; settings: high cell density; read-out: BMMC anti-IgE TNF-alpha
Method: as §3

[14] = tested on: bone marrow derived mast cells (BMMC); assay: BMMC high cell density IgE activation: hexosaminidase; type: cell-based, mouse; settings: high cell density; read-out: BMMC anti-IgE Hexos.
Method: as §3, §2

[15] = Low Density CHMC, anti-IgE activation, tryptase release, read-out: CHMC anti-IgE Tryptase IC50
[16] = Low Density CHMC, ionomycin activation, tryptase release, read-out: CHMC Ionomycin Tryptase IC50
[17] = low cell density, read-out: CHMC Ionomycin Tryptase
[18] = Low Density, read-out: CHMC anti-IgE Tryptase
[19] = Low Density, read-out: CHMC Ionomycin Tryptase

SMILES | IC50 [1, 15] | IC50 [2] | IC50 [3] | IC50 [4] | IC50 [5] | IC50 [6] | IC50 [7] | IC50 [8, 16] | IC50 [9] | IC50 (Syk kinase) | IC50 [10] | IC50 [11] | IC50 [12] | IC50 [13] | IC50 [14] | IC50 [8, 17] | IC50 [1, 18] | IC50 [8, 19] | IC50 ([1]; low cell density, read-out: CHMC anti-IgE Tryptase)
CNC(=O)c1cc2cc(Nc3ncc(F)c(Nc4ccc(C(C)(C)C)cc4)n3)ccc2o1 [Compound R926494] | 313 nM | > 10000 nM | 78 nM | 326 nM | 12500 nM | 640 nM | > 10000 nM | > 10000 nM | > 2000 nM | – | – | – | – | – | – | – | – | – | –
O=C(c1cc2cc(Nc3ncc(F)c(Nc4cccc(O)c4)n3)ccc2o1)N1CCNCC1 [Compound R926502] | – | – | – | – | 1630 nM | > 2000 nM | > 2000 nM | – | > 2000 nM | 217 nM | > 2000 nM | > 10000 nM | – | – | – | – | – | – | –
COC(=O)c1cc2cc(Nc3ncc(F)c(Nc4cccc(O)c4)n3)ccc2o1 [Compound R926614] | 228 nM | > 10000 nM | – | – | 6540 nM | > 10000 nM | – | > 10000 nM | > 10000 nM | – | 6440 nM | – | – | – | – | – | – | – | –
OCc1cc2cc(Nc3ncc(F)c(Nc4cccc(O)c4)n3)ccc2[nH]1 [Compound R926700] | – | < 1100 nM | – | < 1100 nM | 510 nM | < 1100 nM | < 1100 nM | > 10000 nM | < 1100 nM | – | 2050 nM | – | – | – | – | – | – | – | –
CC(C)Oc1ccc(Nc2nc(Nc3ccc4oc(CO)cc4c3)ncc2F)cc1 [Compound R926705] | 263 nM | > 10000 nM | 533 nM | 494 nM | 2650 nM | 1010 nM | 641 nM | > 10000 nM | 1260 nM | – | – | – | – | – | – | – | – | – | –
COC(=O)C1Cc2cc(Nc3ncc(F)c(Nc4ccc(OC(C)C)cc4)n3)ccc2O1 (stereo not drawn) [Compound R926706] | 70 nM | > 10000 nM | 78 nM | 1490 nM | > 10000 nM | > 2000 nM | > 10000 nM | 2410 nM | > 10000 nM | – | – | – | – | – | – | – | – | – | –
Cn1ncc2ccc(Nc3ncc(F)c(Nc4ccc(Cl)c(Cl)c4)n3)cc21 [Compound R935393] | – | – | – | – | > 10000 nM | – | – | – | – | 450 nM | – | – | 520 nM | 1470 nM | 2440 nM | > 10000 nM | – | – | –
Cc1cc(Nc2ncc(F)c(Nc3cc(C)c(O)c(Cl)c3)n2)cc(Cl)c1O [Compound R940216] | – | 3190 nM | – | < 1100 nM | 1280 nM | < 1100 nM | 1180 nM | – | < 1100 nM | – | 3010 nM | – | – | – | – | – | 268 nM | 7300 nM | –
COc1c(C)cc(Nc2ncc(F)c(Nc3ccc4c(c3)NC(=O)C(C)(C)O4)n2)cc1Cl [Compound R940361] | – | – | – | – | 390 nM | – | – | – | – | 69 nM | – | – | 100 nM | 70 nM | 60 nM | 2200 nM | – | – | 47 nM
Cc1cc(Nc2nc(Nc3cccc(OCCN4CCNCC4)c3)ncc2F)cc(C)c1O [Compound R945142] | – | > 2000 nM | – | – | 1880 nM | > 2000 nM | > 10000 nM | – | > 2000 nM | – | > 10000 nM | – | – | – | – | – | – | > 10000 nM | –
Nc1cc(Cl)cc(Nc2ncc(F)c(Nc3cc(N)cc(Cl)c3)n2)c1 [Compound R950141] | – | 1060 nM | – | 201 nM | 2380 nM | 567 nM | 627 nM | – | 618 nM | – | 798 nM | – | – | – | – | – | 310 nM | > 10000 nM | –
